The results in this text go back to publication PMC8215293 (The Journal of Biological Chemistry, 2021).

Several values for one entry are separate records, joined by “and”; a condition that tells them apart may be missing. Equal entries are not always repeated.

Experiment [1] concerns the target T1, adrenodoxin–CYP11B2 fusion protein (Homo sapiens, UniProt P10109+P19099).
T1 sequence (P10109+P19099 with tags, fused parts or gaps): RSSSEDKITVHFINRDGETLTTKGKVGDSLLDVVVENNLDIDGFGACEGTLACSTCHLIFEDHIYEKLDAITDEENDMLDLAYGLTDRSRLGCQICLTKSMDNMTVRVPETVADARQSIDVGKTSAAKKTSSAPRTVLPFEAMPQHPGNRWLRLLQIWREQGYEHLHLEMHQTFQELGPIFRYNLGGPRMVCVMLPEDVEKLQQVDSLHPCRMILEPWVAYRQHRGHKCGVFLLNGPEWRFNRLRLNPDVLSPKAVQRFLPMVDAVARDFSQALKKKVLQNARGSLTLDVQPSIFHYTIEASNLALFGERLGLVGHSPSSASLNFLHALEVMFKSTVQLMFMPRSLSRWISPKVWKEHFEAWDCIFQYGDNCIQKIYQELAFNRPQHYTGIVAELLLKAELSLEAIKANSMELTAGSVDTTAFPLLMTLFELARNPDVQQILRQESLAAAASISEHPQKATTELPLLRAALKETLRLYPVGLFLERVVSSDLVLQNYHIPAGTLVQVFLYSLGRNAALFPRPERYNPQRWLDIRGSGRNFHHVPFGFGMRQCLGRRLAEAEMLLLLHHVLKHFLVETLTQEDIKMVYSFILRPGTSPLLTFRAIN
The class given is binding. To be noted: Adx-CYP11B2 fusion 0.2 μM, 5 cm path length.

In experiment [2] the test system is adrenodoxin–CYP11B2 fusion protein. The class given is binding, human. To be noted: fusion versus isolated CYP11B2.
The target of another experiment is T2, CYP11B2 (Homo sapiens, UniProt P19099).
T2 sequence (P19099 30-503 limits assumed): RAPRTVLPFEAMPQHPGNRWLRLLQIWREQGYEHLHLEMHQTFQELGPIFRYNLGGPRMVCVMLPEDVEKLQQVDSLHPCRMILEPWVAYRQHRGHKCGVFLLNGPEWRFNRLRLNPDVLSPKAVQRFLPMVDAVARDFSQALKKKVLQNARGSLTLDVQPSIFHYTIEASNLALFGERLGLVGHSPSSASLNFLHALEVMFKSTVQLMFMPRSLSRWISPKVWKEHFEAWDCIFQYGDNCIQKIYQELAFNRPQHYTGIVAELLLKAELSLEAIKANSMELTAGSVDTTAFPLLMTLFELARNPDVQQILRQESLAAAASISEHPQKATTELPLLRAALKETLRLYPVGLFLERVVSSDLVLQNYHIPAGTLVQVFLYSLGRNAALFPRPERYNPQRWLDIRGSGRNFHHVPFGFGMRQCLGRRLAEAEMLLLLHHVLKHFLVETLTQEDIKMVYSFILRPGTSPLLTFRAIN
The format is binding. The conditions noted are these: isolated CYP11B2 0.2 μM, 5 cm path length.

For the molecule `N#Cc1ccc([C@H]2CCc3cncn32)c(F)c1` [LCI699, osilodrostat], in experiment [1], the Amax stood at 0.032. In experiment [2], the “increase of Amax (enzyme population binding inhibitor at saturation)” value is ~1.7 fold and 1.7 fold; the “increase of Kd” value worked out at 1.8 fold. On CYP11B2, this molecule came in with an Amax of 0.019.
